Data: patent publication US20080138403A1, “PHARMACEUTICAL DOSAGE FORMS OF OXCARBAZEPINE” (Sun Pharmaceutical Industries Ltd., priority 2006, published 2008)

Experiments:
[1] = cited from earlier work
[2] = particle size by Malvern laser diffraction; type: physicochemical
Description: The particle size of oxcarbazepine may be measured using laser light diffraction technique based instrument such as a Malvern Mastersizer Microplus apparatus. Other known methods of measuring particle size may also be used. The particle size distribution of oxcarbazepine was checked after subjecting the slurry of oxcarbazepine and the hydrophilic polymer in a solvent, to mixing in a colloid mill. The particle size was determined by Malvern laser diffraction technique. The particles were dispersed in an aqueous dispersion medium of Tween 20 (0.1 ml/litre).

[3] = Example 1 slurry after mixing in colloid mill, dispersed in aqueous Tween 20
[4] = oxcarbazepine used for the slurry of Example 2

Particle size D (v, 0.1) 10% particles undersized [2, 3]: 6.93 μm
Particle size D (v, 0.5) 50% particles undersized [2, 3]: 20.56 μm
Particle size D (v, 0.91) 90% particles undersized [2, 3]: 45.97 μm
median particle size D50 [2, 4]: 24.91 μm
particle size D10 [2, 4]: 6.59 μm
particle size D90 [2, 4]: 63.31 μm
SMILES: NC(=O)N1c2ccccc2CC(=O)c2ccccc21 [oxcarbazepine, 10,11-Dihydro-10-oxo-5H-dibenz [b,f]azepine-5-carboxamide]
solubility in water [1]: practically insoluble
